The test has as its target human CXCR3A (Homo sapiens (Human), UniProt P49682). Nature of the test: FLIPR assay. Format: cell-based. Conditions: CHO-K1 cells expressing the human CXCR3A coupled to Galpha(16); CXCL10 agonist 20 nM; Fluo-4-AM fluorescence; mean values if determined several times. As to the method: The bioactivity of compounds is tested in a fluorometric imaging plate reader (FLIPR: Molecular Devices) using engineered CHO-K1 cells expressing the human CXCR3A coupled to a G protein (Galpha(16)). Cells are plated the day prior to bioassay in F12 medium supplemented with 10% FBS and G418 and hygromycin antibiotics to maintain recombinant selection. At the day of bioassay, cells are washed and dye loaded for one hour with Fluo-4-AM (Invitrogen) in Hanks Balanced Salt Solution (Invitrogen), buffered with 20 mM Hepes at pH 7.4 and sodium bicarbonate (0.015%), containing 5 mM probenecid. […] Cells are washed free of excess dye and 60 microliter of wash buffer is added. Stock solutions of test compounds are made up at a concentration of 10 mM in DMSO, and serially diluted in dilution buffer to concentrations required for inhibition dose response curves. After a 10 minute incubation period at 37° C., 10 microliters of each compound dilution are transferred from a compound plate to the plate containing the recombinant cells in the FLIPR instrument according to the manufacturer's instructions. Following basal readings, 10 microliter CXCL10 agonist at a concentration of 20 nM (from Peprotech) is added, again using the FLIPR instrument. Changes in fluorescence are monitored before and after addition of the test compounds. Emission peak values above base level after CXCL10 addition are exported after base line subtraction. The program XLfit is used to fit the data to a single site dose response curve and to calculate IC50 values.
Sequence of human CXCR3A (P49682 whole entry): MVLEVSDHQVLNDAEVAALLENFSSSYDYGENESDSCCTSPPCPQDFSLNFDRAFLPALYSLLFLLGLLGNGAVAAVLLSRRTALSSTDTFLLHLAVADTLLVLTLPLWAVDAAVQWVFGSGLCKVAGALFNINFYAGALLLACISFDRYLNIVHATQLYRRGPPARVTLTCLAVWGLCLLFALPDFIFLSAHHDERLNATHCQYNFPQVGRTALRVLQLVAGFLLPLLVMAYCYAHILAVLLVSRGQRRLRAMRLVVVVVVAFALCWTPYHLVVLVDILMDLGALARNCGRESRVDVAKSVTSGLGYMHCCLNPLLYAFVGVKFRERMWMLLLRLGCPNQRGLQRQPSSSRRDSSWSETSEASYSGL
The term IC50 denotes the concentration that inhibits the measured activity by half. Higher therefore signals weaker potency. “1-{(R)-4-[4-(1H-Benzoimidazol-2-yl)-thiazol-5-yl]-2-methoxymethyl-piperazin-1-yl}-2-pyrrolo[2,3-b]pyridin-1-yl-ethanone [Example 20]” showed an IC50 of 69 nM.
The figure for `O=C(Cn1ccc(C(F)(F)F)n1)N1CCN(c2scnc2-c2nc3ccccc3[nH]2)CC1` [Example 5, 1-{4-[4-(1H-Benzoimidazol-2-yl)-thiazol-5-yl]-piperazin-1-yl}-2-(3-trifluoromethyl-pyrazol-1-yl)-ethanone] is 33 nM; for `Cc1ccn(CC(=O)N2CCN(c3scnc3-c3nc4ccccc4[nH]3)CC2)n1` [Example 6, 1-{4-[4-(1H-Benzoimidazol-2-yl)-thiazol-5-yl]-piperazin-1-yl}-2-(3-methyl-pyrazol-1-yl)-ethanone] it is 130 nM.
As for `Cc1nc(CC(=O)N2CCN(c3scnc3-c3nc4ccccc4[nH]3)CC2)cs1` [Example 7, 1-{4-[4-(1H-Benzoimidazol-2-yl)-thiazol-5-yl]-piperazin-1-yl}-2-(2-methyl-thiazol-4-yl)-ethanone], the IC50 amounted to 516 nM.
The figure for `O=C(Cc1cn2nc(Cl)ccc2n1)N1CCN(c2scnc2-c2nc3ccccc3[nH]2)CC1` [Example 8, 1-{4-[4-(1H-Benzoimidazol-2-yl)-thiazol-5-yl]-piperazin-1-yl}-2-(6-chloro-imidazo[1,2-b]pyridazin-2-yl)-ethanone] is 392 nM; for `Cc1nc2ccccn2c1CC(=O)N1CCN(c2scnc2-c2nc3ccccc3[nH]2)CC1` [Example 9, 1-{4-[4-(1H-Benzoimidazol-2-yl)-thiazol-5-yl]-piperazin-1-yl}-2-(2-methyl-imidazo[1,2-a]pyridin-3-yl)-ethanone] it is 90 nM; for `Cc1nc(C)c(CC(=O)N2CCN(c3scnc3-c3nc4ccccc4[nH]3)CC2)s1` [Example 11, 1-{4-[4-(1H-Benzoimidazol-2-yl)-thiazol-5-yl]-piperazin-1-yl}-2-(2,4-dimethyl-thiazol-5-yl)-ethanone] it is 311 nM.
`COc1ccc2onc(CC(=O)N3CCN(c4scnc4-c4nc5ccccc5[nH]4)CC3)c2c1` [Example 12, 1-{4-[4-(1H-Benzoimidazol-2-yl)-thiazol-5-yl]-piperazin-1-yl}-2-(5-methoxy-benzo[d]isoxazol-3-yl)-ethanone] displayed an IC50 of 314 nM.
Then `Cc1cc(C)n(CC(=O)N2CCN(c3scnc3-c3nc4ccccc4[nH]3)CC2)n1` [Example 13, 1-{4-[4-(1H-Benzoimidazol-2-yl)-thiazol-5-yl]-piperazin-1-yl}-2-(3,5-dimethyl-pyrazol-1-yl)-ethanone], with 92 nM; and `C[C@@H]1CN(c2scnc2-c2nc3c(F)cccc3[nH]2)CCN1C(=O)Cn1ccc2cccnc21` [Example 21, 1-{(R)-4-[4-(4-Fluoro-1H-benzoimidazol-2-yl)-thiazol-5-yl]-2-methyl-piperazin-1-yl}-2-pyrrolo[2,3-b]pyridin-1-yl-ethanone], with 2 nM; and `C[C@@H]1CN(c2scnc2-c2nc3cc(Cl)c(F)cc3[nH]2)CCN1C(=O)Cn1ccc2cccnc21` [Example 26, 1-{(R)-4-[4-(5-Chloro-6-fluoro-1H-benzoimidazol-2-yl)-thiazol-5-yl]-2-methyl-piperazin-1-yl}-2-pyrrolo[2,3-b]pyridin-1-yl-ethanone], with 1 nM.
Take `C[C@@H]1CN(c2scnc2-c2nc3c(F)c(F)ccc3[nH]2)CCN1C(=O)Cn1ccc2cccnc21` [Example 28, 1-{(R)-4-[4-(4,5-Difluoro-1H-benzoimidazol-2-yl)-thiazol-5-yl]-2-methyl-piperazin-1-yl}-2-pyrrolo[2,3-b]pyridin-1-yl-ethanone]: the IC50 was 1 nM.
`Cn1c(=O)n(CC(=O)N2CCN(c3scnc3-c3nc4c(Cl)cccc4[nH]3)CC2)c2ccccc21` [Example 29, 1-(2-{4-[4-(4-Chloro-1H-benzoimidazol-2-yl)-thiazol-5-yl]-piperazin-1-yl}-2-oxo-ethyl)-3-methyl-1,3-dihydro-benzoimidazol-2-one]: the IC50 was 4 nM. Against the preceding molecule, the IC50 is about 4-fold higher.
Consider `COc1ccc2[nH]c(-c3ncsc3N3CCN(C(=O)Cn4c(=O)n(C)c5ccccc54)CC3)nc2c1` [Example 33, 1-(2-{4-[4-(5-Methoxy-1H-benzoimidazol-2-yl)-thiazol-5-yl]-piperazin-1-yl}-2-oxo-ethyl)-3-methyl-1,3-dihydro-benzoimidazol-2-one], for which the IC50 was 5 nM.
The figure for `Cn1c(=O)n(CC(=O)N2CCN(c3scnc3-c3nc4ccc(F)cc4[nH]3)CC2)c2ccccc21` [Example 34, 1-(2-{4-[4-(6-Fluoro-1H-benzoimidazol-2-yl)-thiazol-5-yl]-piperazin-1-yl}-2-oxo-ethyl)-3-methyl-1,3-dihydro-benzoimidazol-2-one] is 10 nM; for `COc1cc2nc(-c3ncsc3N3CCN(C(=O)Cn4c(=O)n(C)c5ccccc54)CC3)[nH]c2cc1OC` [Example 36, 1-(2-{4-[4-(5,6-Dimethoxy-1H-benzoimidazol-2-yl)-thiazol-5-yl]-piperazin-1-yl}-2-oxo-ethyl)-3-methyl-1,3-dihydro-benzoimidazol-2-one] it is 17 nM.
Then `Cc1nc(-c2nc3ccccc3[nH]2)c(N2CCN(C(=O)Cn3ccc4cccnc43)CC2)s1` [Example 40, 1-{4-[4-(1H-Benzoimidazol-2-yl)-2-methyl-thiazol-5-yl]-piperazin-1-yl}-2-pyrrolo[2,3-b]pyridin-1-yl-ethanone], with 20 nM; and `O=C(Cn1ccc2cccnc21)N1CCN(c2sc(-c3ccccc3)nc2-c2nc3ccccc3[nH]2)CC1` [Example 41, 1-{4-[4-(1H-Benzoimidazol-2-yl)-2-phenyl-thiazol-5-yl]-piperazin-1-yl}-2-pyrrolo[2,3-b]pyridin-1-yl-ethanone], with 77 nM; and `O=C(Cn1ccc2cccnc21)N1CCN(c2sc(Cl)nc2-c2nc3ccccc3[nH]2)CC1` [Example 42, 1-{4-[4-(1H-Benzoimidazol-2-yl)-2-chloro-thiazol-5-yl]-piperazin-1-yl}-2-pyrrolo[2,3-b]pyridin-1-yl-ethanone], with 547 nM.
The figure for `O=C(Cn1cnc2cccnc21)N1CCCN(c2scnc2-c2nc3ccccc3[nH]2)CC1` [Example 45, 1-{4-[4-(1H-Benzoimidazol-2-yl)-thiazol-5-yl]-[1,4]diazepan-1-yl}-2-imidazo[4,5-b]pyridin-3-yl-ethanone] is 48 nM; for `C[C@H]1CN(c2scnc2-c2nc3ccccc3[nH]2)CCN1C(=O)Cn1cnc2cccnc21` [Example 47, 1-{(S)-4-[4-(1H-Benzoimidazol-2-yl)-thiazol-5-yl]-2-methyl-piperazin-1-yl}-2-imidazo[4,5-b]pyridin-3-yl-ethanone] it is 18 nM; for `O=C(Cn1cnc2cccnc21)N1CCC(c2scnc2-c2nc3ccccc3[nH]2)CC1` [Example 48, 1-{4-[4-(1H-Benzoimidazol-2-yl)-thiazol-5-yl]-piperidin-1-yl}-2-imidazo[4,5-b]pyridin-3-yl-ethanone] it is 448 nM.
In turn, `COc1cccc2c1ccn2CC(=O)N1CCN(c2scnc2-c2nc3ccccc3[nH]2)CC1` [Example 52, 1-{4-[4-(1H-Benzoimidazol-2-yl)-thiazol-5-yl]-piperazin-1-yl}-2-(4-methoxy-indol-1-yl)-ethanone] had an IC50 of 136 nM. This IC50 lies about 3.3-fold lower than the previous one.
`O=C(Cn1ccc2cc(Cl)c(Cl)cc21)N1CCN(c2scnc2-c2nc3ccccc3[nH]2)CC1` [Example 53, 1-{4-[4-(1H-Benzoimidazol-2-yl)-thiazol-5-yl]-piperazin-1-yl}-2-(5,6-dichloro-indol-1-yl)-ethanone] yielded an IC50 of 15 nM.
In turn, `O=C(Cn1ccc2ccc(C(F)(F)F)cc21)N1CCN(c2scnc2-c2nc3ccccc3[nH]2)CC1` [Example 54, 1-{4-[4-(1H-Benzoimidazol-2-yl)-thiazol-5-yl]-piperazin-1-yl}-2-(6-trifluoromethyl-indol-1-yl)-ethanone] had a half-maximal inhibitory concentration (IC50) of 112 nM.
The figure for `O=C(Cn1ccc2ccc(F)cc21)N1CCN(c2scnc2-c2nc3ccccc3[nH]2)CC1` [Example 56, 1-{4-[4-(1H-Benzoimidazol-2-yl)-thiazol-5-yl]-piperazin-1-yl}-2-(6-fluoro-indol-1-yl)-ethanone] is 4 nM; for `Cc1cc2ccccc2n1CC(=O)N1CCN(c2scnc2-c2nc3ccccc3[nH]2)CC1` [Example 58, 1-{4-[4-(1H-Benzoimidazol-2-yl)-thiazol-5-yl]-piperazin-1-yl}-2-(2-methyl-indol-1-yl)-ethanone] it is 34 nM; for `N#Cc1cn(CC(=O)N2CCN(c3scnc3-c3nc4ccccc4[nH]3)CC2)c2ccccc12` [Example 59, 1-(2-{4-[4-(1H-Benzoimidazol-2-yl)-thiazol-5-yl]-piperazin-1-yl}-2-oxo-ethyl)-1H-indole-3-carbonitrile] it is 4 nM.
The figure for `COc1cc2c(ccn2CC(=O)N2CCN(c3scnc3-c3nc4ccccc4[nH]3)CC2)cc1Cl` [Example 62, 1-{4-[4-(1H-Benzoimidazol-2-yl)-thiazol-5-yl]-piperazin-1-yl}-2-(5-chloro-6-methoxy-indol-1-yl)-ethanone] is 6 nM; for `Cc1cn(CC(=O)N2CCN(c3scnc3-c3nc4ccccc4[nH]3)CC2)c2ccc(F)cc12` [Example 63, 1-{4-[4-(1H-Benzoimidazol-2-yl)-thiazol-5-yl]-piperazin-1-yl}-2-(5-fluoro-3-methyl-indol-1-yl)-ethanone] it is 13 nM.

The values above are taken from US9266876B2 (Actelion Pharmaceuticals Ltd., priority 2012, dated 2016).
